Laboratory results from patent US20090099094A1, “Use of Somatostatin Agonists to Treat Medullary Thyroid Carcinoma” (priority 2007, published 2009).
Each block holds one molecule with its values, some of them ahead of it.

Key:
[1] = target: SSTR1 (Homo sapiens, UniProt P30872); assay: SSTR receptor binding affinity (Ki), SSTR1; details: read-out: SSTR Specificity Ki SSTR1
[2] = target: SSTR4 (Homo sapiens, UniProt P31391); assay: SSTR receptor binding affinity (Ki), SSTR4; details: read-out: SSTR Specificity Ki SSTR4
Chain of SSTR4 (P31391 whole entry): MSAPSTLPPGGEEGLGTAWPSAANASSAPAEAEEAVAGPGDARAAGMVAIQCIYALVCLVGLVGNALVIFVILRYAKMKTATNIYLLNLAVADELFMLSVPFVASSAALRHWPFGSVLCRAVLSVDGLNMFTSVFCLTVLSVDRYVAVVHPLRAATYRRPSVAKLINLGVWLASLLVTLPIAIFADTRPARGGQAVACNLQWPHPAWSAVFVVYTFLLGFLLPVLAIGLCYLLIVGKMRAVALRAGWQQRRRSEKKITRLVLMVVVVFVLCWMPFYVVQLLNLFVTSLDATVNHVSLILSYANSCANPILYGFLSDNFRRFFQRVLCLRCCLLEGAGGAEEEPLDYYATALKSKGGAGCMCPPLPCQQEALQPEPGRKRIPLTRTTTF

[3] = target: SSTR2 (Homo sapiens, UniProt P30874); assay: SSTR receptor binding affinity (Ki), SSTR2; details: read-out: SSTR Specificity Ki SSTR2
Chain of SSTR2 (P30874 whole entry): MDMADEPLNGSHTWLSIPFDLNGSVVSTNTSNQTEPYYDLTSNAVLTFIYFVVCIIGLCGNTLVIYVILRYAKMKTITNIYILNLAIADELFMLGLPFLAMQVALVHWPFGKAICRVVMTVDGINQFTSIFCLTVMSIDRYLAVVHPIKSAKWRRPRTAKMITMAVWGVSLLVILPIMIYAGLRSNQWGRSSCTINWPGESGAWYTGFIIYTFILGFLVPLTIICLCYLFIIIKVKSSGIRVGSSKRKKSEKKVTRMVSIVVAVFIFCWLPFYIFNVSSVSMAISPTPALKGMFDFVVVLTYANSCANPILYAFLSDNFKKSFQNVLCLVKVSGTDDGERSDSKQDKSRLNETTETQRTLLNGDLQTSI

[4] = target: SSTR3 (Homo sapiens, UniProt P32745); assay: SSTR receptor binding affinity (Ki), SSTR3; details: read-out: SSTR Specificity Ki SSTR3
Chain of SSTR3 (P32745 whole entry): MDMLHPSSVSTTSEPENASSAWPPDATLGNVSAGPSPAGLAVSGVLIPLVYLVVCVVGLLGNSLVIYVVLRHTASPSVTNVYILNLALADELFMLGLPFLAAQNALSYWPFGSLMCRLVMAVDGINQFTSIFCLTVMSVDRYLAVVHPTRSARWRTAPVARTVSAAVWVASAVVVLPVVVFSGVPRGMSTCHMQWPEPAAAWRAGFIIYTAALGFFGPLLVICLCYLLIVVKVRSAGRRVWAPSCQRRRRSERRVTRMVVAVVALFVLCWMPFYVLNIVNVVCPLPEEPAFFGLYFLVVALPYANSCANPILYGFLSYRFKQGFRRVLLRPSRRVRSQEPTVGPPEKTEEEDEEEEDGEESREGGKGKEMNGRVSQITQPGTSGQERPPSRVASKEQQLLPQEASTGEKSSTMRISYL

[5] = system: medullary thyroid carcinoma primary cultures; assay: Calcitonin secretion by MTC primary cultures (IRMA); type: cell-based, human; details: 10^−8 M, six hours
Description: Primary cultured cells from 18 selected MTC samples were incubated in ninety six well plates for six hours with each SSTR agonist at 10^−8 M. Control cells were treated with vehicle solution. Calcitonin levels in the conditioned medium were measured by immunoradiometric assay (IRMA) among eight replicates in the conditioned medium from treated and untreated (control) primary cultured cells. […] Data are expressed as the mean±SE percent hormone secretion inhibition vs. untreated control cells. *P<0.05 and **P<0.01 vs. control.
(§1) Tissue samples were surgically removed in accordance with the guidelines of the local comnmittees on human research. Thyroid tissue samples were obtained under sterile conditions and immediately minced in RPMI 1640 tissue culture medium. Tissues were incubated with 0.25% trypsin overnight at 4° C. and then dissociated using 0.35% collagenase (Sigma, Milano, ITALY) and 1% trypsin at 37° C. for sixty minutes. Cell suspensions were filtered through double layers of gaus(e and washed twice with serum-free F-12 Ham's Nutrient Modified Medium (F-12; Euroclone Ltd, Wetherby, UNITED KINGDOM). Tumor cells were re-suspended in F-12 with 10% fetal bovine serum and antibiotics, seeded in ninety-six well culture plates (˜2×10^4 cells/well) and incubated at 37° C. in a humidified atmosphere of 5% CO2 and 95% air according to known procedures (Zatelli, M. C. et al., Endocrinology, 2005, 146:2692-8). Approximately twenty-four hours later, the prepared cells were treated with the selected somatostatin agonist and were monitored for hormone secretion and overall viability. Informed consent of the patients was obtained for disclosing clinical investigation and performing the in vitro study.
Calcitonin levels were measured in a conditioned medium from treated and untreated primary cultured cells with the calcitonin-U.S.-IRMA® kit (Biosource Europe, Nivelles, BELGIUM) after a six hour treatment with […] of the selected somatostatin analogs. The intra- and inter-assay variation coefficients were 1.9-2.7% and 1.9-3.3%, respectively. The detection limit was 0.8 pg/ml. Hormone assays were performed in duplicate of conditioned medium from treated cells. Results were obtained by determining the mean value among eight replicates.
In order to investigate the effects of somatostatin analogs on hormone secretion, calcitonin and CgA levels were measured in conditioned media collected from primary cultures derived from the selected eighteen medullary thyroid carcinoma treated with or without each somatostatin analog at 10^−8M for six hours.
According to this criterion, […] as “responders” (group A: primary cultures #3, #5, #6, #7, #11, #12, #13, #14, #15, #16) and nine as “non responders” (group B: primary cultures #1, #2, #4, #8, #9, #10, #17, #18).

[6] = system: medullary thyroid carcinoma primary cultures; assay: Cell viability of MTC primary cultures (MTT); type: cell-based, human; details: 10^−8 M, forty-eight hours; for cell viability, change vs. control (signed, negative = reduced): group B (lanreotide non-responsive) mean
Description: Primary cultured cells from 18 selected MTC samples were incubated in ninety six well plates for forty eight hours with each SSTR agonist at 10^−8 M. Control cells were treated with vehicle solution. Cell viability was measured by a colorimetric method among eight replicates from treated and untreated (control) primary cultured cells. […] Data are expressed as the mean±SE percent cell viability reduction vs. untreated control cells. *P<0.05, and **P<0.01 vs. control.
as §1
The effects of the tested somatostatin analogs on medullary thyroid carcinoma primary culture cell viability were assessed with a Cell Proliferation Kit I MTT® (Roche Diagnostics GmbH, Mannheim, GERMANY) which employs a colorimetric method for determining the number of viable cells in proliferation assays. Primary cultured cells were plated in ninety-six multiwell plates (2×10^4 cells/well) and incubated for forty-eight hours in a medium supplemented with 10% fetal bovine serum in the presence or absence of each somatostatin analog at 10^−8M. Treatments were renewed after the first twenty-four hours of incubation.
In order to investigate the effects of somatostatin analogs on medullary thyroid carcinoma cell viability, an MTT assay was performed in primary cultures derived from the eighteen selected medullary thyroid carcinoma samples, treated with or without each somatostatin analog at […] for forty-eight hours. Percent cell viability reduction compared to a control in each primary culture under treatment with each somatostatin analog is reported in Table 6.

[7] = system: MTC; details: cited from earlier work; for suppressing calcitonin secretion: MTC, commercially available somatostatin analogs; for reducing tumour size and/or increasing patient survival rate: treatment of MTC patients
[8] = MTC primary culture #1 (non responder)
[9] = MTC primary culture #2 (non responder)
[10] = MTC primary culture #3 (responder)
[11] = MTC primary culture #4 (non responder)
[12] = MTC primary culture #5 (responder)
[13] = MTC primary culture #6 (responder)
[14] = MTC primary culture #7 (responder)
[15] = MTC primary culture #8 (non responder)
[16] = MTC primary culture #9 (non responder)
[17] = MTC primary culture #10 (non responder)
[18] = MTC primary culture #11 (responder)
[19] = MTC primary culture #12 (responder)
[20] = MTC primary culture #13 (responder)
[21] = MTC primary culture #14 (responder)
[22] = MTC primary culture #15 (responder)
[23] = MTC primary culture #16 (responder)
[24] = MTC primary culture #17 (non responder)
[25] = MTC primary culture #18 (non responder)
[26] = group A (lanreotide responsive) mean

Chain of SSTR1 (P30872 whole entry): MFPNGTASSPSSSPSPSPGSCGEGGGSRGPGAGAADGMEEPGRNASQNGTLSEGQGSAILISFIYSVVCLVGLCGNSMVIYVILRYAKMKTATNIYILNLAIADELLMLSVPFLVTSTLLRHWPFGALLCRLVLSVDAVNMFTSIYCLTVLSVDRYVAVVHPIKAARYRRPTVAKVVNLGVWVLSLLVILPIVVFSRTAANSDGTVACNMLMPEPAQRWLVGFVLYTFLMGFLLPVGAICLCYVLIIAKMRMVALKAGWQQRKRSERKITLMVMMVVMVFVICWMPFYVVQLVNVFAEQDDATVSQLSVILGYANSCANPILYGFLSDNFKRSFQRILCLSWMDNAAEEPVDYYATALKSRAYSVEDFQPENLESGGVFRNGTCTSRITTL

- Ki [1]: 4520 nM
- Ki [2]: 6360 nM
SMILES: CC[C@@H]1NC(=O)[C@H](CCCCN)NC(=O)[C@@H](Cc2c[nH]c3ccccc23)NC(=O)[C@H](Cc2ccc(O)cc2)NC(=O)[C@@H](NC(=O)[C@@H](Cc2ccccc2)NC(=O)CN2CCN(CCO)CC2)CSSC[C@@H](C(=O)N[C@H](C(N)=O)[C@@H](C)O)NC1=O [4-(2-Hydroxyethyl)-1-piperazinylacetyl-D-Phe-c[Cys-Tyr-D-Trp-Lys-Abu-Cys]-Thr-NH2]

- Ki [1]: 1020 nM
- Ki [3]: 0.29 nM
- Ki [4]: 133 nM
- Ki [2]: > 1000 nM
SMILES: CC(C)[C@@H]1NC(=O)[C@H](CCCCN)NC(=O)[C@@H](Cc2c[nH]c3ccccc23)NC(=O)[C@H](Cc2ccc(O)c(I)c2)NC(=O)[C@@H](NC(=O)[C@H](N)Cc2ccccc2)CSSC[C@@H](C(=O)N[C@H](C(N)=O)[C@@H](C)O)NC1=O [Cmpd #4, D-Phe-[Cys-Tyr(I)-D-Trp-Lys-Val-Cys]-Thr-NH2]
- % CT secretion inhibition vs. control [5, 8]: −10.5%
- % CT secretion inhibition vs. control [5, 9]: 5.2%
- % CT secretion inhibition vs. control [5, 10]: −33.9%
- % CT secretion inhibition vs. control [5, 11]: −10.3%
- % CT secretion inhibition vs. control [5, 12]: −15.7%
- % CT secretion inhibition vs. control [5, 13]: −12.6%
- % CT secretion inhibition vs. control [5, 14]: −42.6%
- % CT secretion inhibition vs. control [5, 15]: 3.6%
- % CT secretion inhibition vs. control [5, 16]: −5.2%
- % CT secretion inhibition vs. control [5, 17]: 12.8%
- % CT secretion inhibition vs. control [5, 18]: −15.7%
- % CT secretion inhibition vs. control [5, 19]: −18.5%
- % CT secretion inhibition vs. control [5, 20]: −42.8%
- % CT secretion inhibition vs. control [5, 21]: 8.4%
- % CT secretion inhibition vs. control [5, 22]: −30.6%
- % CT secretion inhibition vs. control [5, 23]: −16.2%
- % CT secretion inhibition vs. control [5, 24]: 12.7%
- % CT secretion inhibition vs. control [5, 25]: 5.3%
- calcitonin secretion, change vs. control (signed, negative = reduced) [5, 26]: −25%
- calcitonin secretion, change vs. control (signed, negative = reduced) ([5]; group B (lanreotide non-responsive) mean): not reduced
- % cell viability reduction vs. control [6, 8]: −14.7%
- % cell viability reduction vs. control [6, 9]: −38.3%
- % cell viability reduction vs. control [6, 10]: 13.3%
- % cell viability reduction vs. control [6, 11]: −11.3%
- % cell viability reduction vs. control [6, 12]: 24.7%
- % cell viability reduction vs. control [6, 13]: −10.8%
- % cell viability reduction vs. control [6, 14]: 5.7%
- % cell viability reduction vs. control [6, 15]: −20.6%
- % cell viability reduction vs. control [6, 16]: −32.1%
- % cell viability reduction vs. control [6, 17]: 6.5%
- % cell viability reduction vs. control [6, 18]: 1.4%
- % cell viability reduction vs. control [6, 19]: 7.4%
- % cell viability reduction vs. control [6, 20]: 9.3%
- % cell viability reduction vs. control [6, 21]: 1.3%
- % cell viability reduction vs. control [6, 22]: 12.6%
- % cell viability reduction vs. control [6, 23]: 15.0%
- % cell viability reduction vs. control [6, 24]: −2.6%
- % cell viability reduction vs. control [6, 25]: −7.7%
- cell viability, change vs. control (signed, negative = reduced) [6]: −13%

SMILES: CC(C)[C@@H]1NC(=O)[C@H](CCCCN)NC(=O)[C@@H](Cc2c[nH]c3ccccc23)NC(=O)[C@H](Cc2ccc(O)cc2)NC(=O)[C@@H](NC(=O)[C@H](N)Cc2ccc3ccccc3c2)CSSC[C@@H](C(=O)N[C@H](C(N)=O)[C@@H](C)O)NC1=O [lanreotide, D-β-Nal-c[Cys-Tyr-D-Trp-Lys-Val-Cys]-Thr-NH2, reference compound]
- Ki [1]: 2130 nM
- Ki [4]: 98 nM
- % CT secretion inhibition vs. control [5, 8]: −5.2%
- % CT secretion inhibition vs. control [5, 9]: 21.7%
- % CT secretion inhibition vs. control [5, 10]: −22.6%
- % CT secretion inhibition vs. control [5, 11]: 34.7%
- % CT secretion inhibition vs. control [5, 12]: −19.0%
- % CT secretion inhibition vs. control [5, 13]: −18.0%
- % CT secretion inhibition vs. control [5, 14]: −44.6%
- % CT secretion inhibition vs. control [5, 15]: 14.7%
- % CT secretion inhibition vs. control [5, 16]: 9.8%
- % CT secretion inhibition vs. control [5, 17]: 22.9%
- % CT secretion inhibition vs. control [5, 18]: −25.1%
- % CT secretion inhibition vs. control [5, 19]: −20.6%
- % CT secretion inhibition vs. control [5, 20]: −42.5%
- % CT secretion inhibition vs. control [5, 21]: −19.8%
- % CT secretion inhibition vs. control [5, 22]: −20.9%
- % CT secretion inhibition vs. control [5, 23]: −34.3%
- % CT secretion inhibition vs. control [5, 24]: 8.5%
- % CT secretion inhibition vs. control [5, 25]: −10.8%
- calcitonin secretion reduced / inhibited by ([5]; group A (lanreotide responders) mean): 27%
- calcitonin secretion, change vs. control (signed, negative = reduced) [5, 26]: −27%
- % cell viability reduction vs. control [6, 8]: −6.1%
- % cell viability reduction vs. control [6, 9]: −57.0%
- % cell viability reduction vs. control [6, 10]: 1.5%
- % cell viability reduction vs. control [6, 11]: −25.8%
- % cell viability reduction vs. control [6, 12]: 13.4%
- % cell viability reduction vs. control [6, 13]: 9.7%
- % cell viability reduction vs. control [6, 14]: 54.4%
- % cell viability reduction vs. control [6, 15]: −7.9%
- % cell viability reduction vs. control [6, 16]: −8.6%
- % cell viability reduction vs. control [6, 17]: 7.0%
- % cell viability reduction vs. control [6, 18]: −11.2%
- % cell viability reduction vs. control [6, 19]: 3.5%
- % cell viability reduction vs. control [6, 20]: 23.1%
- % cell viability reduction vs. control [6, 21]: 1.8%
- % cell viability reduction vs. control [6, 22]: −8.3%
- % cell viability reduction vs. control [6, 23]: −15.8%
- % cell viability reduction vs. control [6, 24]: −9.7%
- % cell viability reduction vs. control [6, 25]: −15.8%
- cell viability, change vs. control (signed, negative = reduced) [6]: −14%
- suppressing calcitonin secretion [7]: lack of efficacy
- reducing tumour size and/or increasing patient survival rate [7]: little effect

SMILES: C[C@@H](O)[C@@H]1NC(=O)[C@H](CCCCN)NC(=O)[C@@H](Cc2c[nH]c3ccccc23)NC(=O)[C@H](Cc2ccccc2)NC(=O)[C@@H](NC(=O)[C@H](N)Cc2ccccc2)CSSC[C@@H](C(=O)N[C@H](CO)[C@@H](C)O)NC1=O [octreotide]
- suppressing calcitonin secretion [7]: lack of efficacy
- reducing tumour size and/or increasing patient survival rate [7]: little effect
